In patent US20260193149A1, “[…] USEFUL MINERAL AMINO ACID COMPLEXES” (Statera Ag, LLC, priority 2022, published 2026):
“And” between values parts separate entries of the source, which are not always exact repeats. Equal values may be shown once.

What was measured:
corn [1] = test: Boron absorption into corn leaf after foliar application, growth stage V5 (Example 4)
Method: Each solution was applied independently of one another at these rates, and the applications emulated commercial application conditions, with 30-inch spacings. The test solutions were applied to three different fields to allow for data replication. The corn was at growth stage V5 during the test. Each test solution was evenly applied using a portable foliar applicator ([…] M18 sprayer with a four-gallon tank). Application time per row was recorded to allow for the calculation of an average application rate of the applicator. Any remaining application solution was weighed to allow for the exact calculation of applied solution per acre (converted below to ounces per acre). The solution application rates are reported below in Table 11 and boron application rates are reported below in Table 12. Applications were done in the heat of the day (96° F.), with minimal wind to preclude drift. Control strips for each product at both application rates were identified, and tissue samples from the control strips were collected to reflect an application rate of 0.00 ounces of product per 68 ounces of water.
Tissues were collected after two days using standard tissue collection procedures. Twelve top collar leaves were collected per row. The leaf samples were placed in paper bags and sent to a commercial lab for leaf mineral analysis using ICP-AA.
The application rates reported above Table 11 were adjusted by the concentration of the applied product so that the data could be compared on an equivalent basis, which are reported in Table 12. Tissue boron was regressed against the adjusted applied rates using the Fit Y×X model of SAS JMP (v. 15.0). The Experimental Unit was Field.
Five chemical compounds containing boron were evaluated. The slope of the line was defined according to the following equation: […]

corn [2] = test: Boron absorption into corn leaf after foliar application, growth stage V7 (Example 5); type: in vivo; conditions: leaves collected after two days
Method: The same procedure of Example 4 was followed for this Example, and the same application solutions at rate 2 were used and applied to three separate fields of corn at growth stage V7.
Twelve top collar leaves were collected per row.
Tissue boron data were analyzed using the Fit Y×X module of SAS JMP (v. 15.0). The tissue data were compared using the Oneway Analysis option. Means for boric acid and boron lysinate were separated using the Student's t-test.

[3] = corn V5, foliar application, top collar leaves collected after two days, slope of tissue boron vs applied boron

Compound | decrease of boron absorbed into leaf tissue compared to boric acid (corn [1]; corn V5, Example 4) | B Absorption, ppm/oz applied B (corn [1]; [3]) | B Absorption, ppm/oz applied B (corn [1]; corn, in vivo, 2 days) | increase of corn tissue boron for every ounce of boron applied (corn [1]; corn, in vivo, 2 days) | Boron Absorption, ppm/oz B (corn [2]) | Boron Absorption, ppm/oz B (corn [2]; listed as boron lysinate) | boron absorption greater than boric acid (corn [1]; corn V5, Example 4) | increase of corn tissue boron for every ounce of boron applied (corn [1]; corn V5, Example 4, per ounce applied boron)
ethanolamine boron [Boron ethanolamine, reference compound] | 0.45 ppm | 4.13 ppm/oz applied B | – | – | – | – | – | –
OB(O)O [Boric acid, boric acid, reference compound] | – | – | 4.58 ppm/oz applied B | 4.58 ppm | – | – | – | –
boron lysinate | – | 7.66 ppm/oz applied B | – | – | 13.13 ppm/oz B and 13.13^b ppm/oz B | 13.13 ppm/oz B | 3.92 ppm and 3.08 ppm | 7.66 ppm
